Experimental data: patent US20250304587A1, “WEE1 INHIBITOR, PREPARATION THEREFOR AND USE THEREOF” (JIANGSU TASLY DIYI PHARMACEUTICAL CO., LTD., priority 2022, published 2025)
Like-named read-outs stand apart in the source and are kept apart here.

Experiments:
[1] = Metabolic stability in liver microsomes, human; type: in vitro ADME
Procedure: (§1) Test Example 3: Evaluation of the Metabolic Stability of Liver Microsomes (Mouse and Human) In Vitro Microsomes were taken out from the −80° C. refrigerator, rapidly melted in a 37° C. water bath and placed on ice until ready to use. The test article was diluted with DMSO to prepare a 10 mM stock solution, and then diluted with acetonitrile to a 0.5 mM secondary stock solution. […] NADPH was diluted with Buffer C to a working solution of 6 mM for the starter solution. An acetonitrile solution containing an internal standard was prepared as the precipitant, and Verapamil-HCl was chosen as the internal standard at a concentration of 4 ng/ml. […] A separate plate with pointed bottom wells, noted as a precipitation plate, was added with 135 μL precipitant per well; 0 h samples were transferred to the plate after 10 min incubation and 15 μL of starter solution was added; the plate was placed on ice before centrifugation. The diluted starter solution was added in sufficient quantity to the dispensing plate to facilitate the multichannel pipette aspiration operation. The reaction was carried out on a warm incubation shaker and 15 μL of starter solution/sample is added to the plate using a multichannel pipette. The reaction was mixed with a slight shake to initiate the reaction, which was accurately timed and recorded using a timer; After the reaction time had elapsed, all the solution in the plate was aspirated using the multichannel pipette and added to the precipitation plate to terminate the reaction at that point in time. After all reactions had been terminated, the plates were shaken for ten minutes on a plate shaker at 600 rpm to precipitate the protein. The plate was centrifuged at 4° C. for 15 minutes at maximum rpm. 80 μL of supernatant was taken, 320 μL of pure water was added and mixed for LC-MS analysis.

[2] = test system: plasma protein; assay: Plasma protein binding (equilibrium dialysis), mouse; conditions: mouse plasma, 1 μM, 5 h dialysis
Procedure: Sample preparation: The compound was dissolved in DMSO to a stock solution of 10 mM, then the compound was diluted with PBS to a secondary stock solution of 0.02 mM, and then the above 0.02 mM was diluted to 1 μM using blank plasma, which was the sample to be incubated.
Dialysis set-up preparation: 400 μL of blank PBS was first added to the white wells of the equilibrated dialysis plate and 200 μL of the configured plasma sample was added to the red wells, and the dialysis plate was sealed with a sealing film.
Recovery plate preparation: Two 96-well deep-well plates, labelled T0 and T5, were prepared and all plasma samples were added at n=2. 300 μL of acetonitrile (Verapamil-HCl, 4 ng/mL) was added directly to the TO plate, followed by 50 μL of blank PBS mix well for 5 min and left to stand in a 4° C. refrigerator until the end of the incubation.
Experimental Operation: The dialysis device and the T5 plate were incubated together for 5 h in a microplate thermostatic shaker (37° C., using 300 rpm or minimum speed). At the end of the incubation, 300 μL of acetonitrile (Verapamil-HCl, 4 ng/mL) was added and 50 μL of PBS solution was added. At the end of the dialysis incubation, a new 96-well deep well plate was taken. Add 50 μL of plasma well sample to the corresponding position of the 96-well plate, 300 μL of acetonitrile and 50 μL of blank PBS; take 50 μL of buffer well sample to the corresponding position of the 96-well plate, then add 300 μL of acetonitrile and 50 μL of blank plasma. Add 300 μL of acetonitrile (Verapamil-HCl, 4 ng/mL) to the plasma-containing wells of the T5 plate, and then 50 μL of PBS solution was added. Shake for 5 min to fully precipitate the proteins and centrifuge at 20,000 g for 10 min at 4° C. Add 200 μL of supernatant to 200 μL of pure water, mix well and perform LC-MS/MS analysis.
• Plasma protein binding rate=[(Rpe−Rb)/Rpe]×100% • Recovery=[(Rpe+Rb)/R5 h]×100% • Stability=(R5/R0)×100%
• Rpe=ratio of plasma-side testing sample peak area to internal standard • Rb=ratio of buffer side testing sample peak area to internal standard • R5=ratio of incubator stability sample peak area to internal standard • R0=ratio of refrigerator stability sample peak area to internal standard

[3] = target: CYP3A4 (Homo sapiens (Human), UniProt P08684); assay: Cytochrome P450 inhibition (fluorescence), CYP3A4; type: in vitro ADME
Chain of CYP3A4 (P08684 whole entry, canonical isoform): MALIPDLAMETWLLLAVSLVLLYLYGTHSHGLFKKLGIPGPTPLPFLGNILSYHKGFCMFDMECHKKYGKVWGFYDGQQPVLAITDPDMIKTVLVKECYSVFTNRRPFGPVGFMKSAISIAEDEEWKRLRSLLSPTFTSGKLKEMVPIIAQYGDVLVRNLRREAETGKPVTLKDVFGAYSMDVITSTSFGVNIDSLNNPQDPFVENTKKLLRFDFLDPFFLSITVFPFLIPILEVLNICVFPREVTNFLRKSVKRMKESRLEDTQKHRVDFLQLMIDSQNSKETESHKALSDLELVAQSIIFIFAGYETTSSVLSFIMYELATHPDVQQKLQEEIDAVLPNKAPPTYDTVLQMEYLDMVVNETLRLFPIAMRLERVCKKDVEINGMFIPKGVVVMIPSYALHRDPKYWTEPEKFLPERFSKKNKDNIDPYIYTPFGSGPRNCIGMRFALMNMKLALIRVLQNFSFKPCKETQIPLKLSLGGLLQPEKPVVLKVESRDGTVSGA
Procedure: (§2) Enzymatic experiments were performed to quantify the inhibition of CYP450 enzyme activity of each isoform of CYP450 by small molecule inhibitors through fluorescence generated by the oxidation of the substrate by cytochrome P450. […] The Solution B composition used for the experiment was: 40 U/mL G6PDH (Sigma-aldrich, Cat #G6378). The substrate mix was 0.05× Solution A, 0.01× Solution B, 50 mM Potassium Phosphate, 0.01 mM BOMCC/0.01 mM EOMCC/0.001 mM DBOMF. […] The data were analyzed and processed using GraphPad Prism 6 software to obtain IC50 values.

[4] = test system: plasma protein; assay: Plasma protein binding (equilibrium dialysis), rat; type: in vitro ADME; conditions: 1 μM, 5 h dialysis
[5] = test system: BxPC3 cells; assay: Cell Titer-Glo anti-proliferation, BxPC3 cells; type: cell-based, human; conditions: 3 days, read-out: Anti-proliferative activity BxPC3 (IC50 class)
In short: (§3)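 Each line was exposed to graded compound concentrations for 3 days at 37 °C, 5% CO2, with final DMSO at 0.2%. Viability was measured by Cell Titer-Glo luminescence, with untreated cells as the maximum and medium as the minimum signal. IC50 came from a variable-slope log(inhibitor)-response fit.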

[6] = target: CYP1A2 (Homo sapiens (Human), UniProt P05177); assay: Cytochrome P450 inhibition (fluorescence), CYP1A2; type: in vitro ADME
Chain of CYP1A2 (P05177 whole entry): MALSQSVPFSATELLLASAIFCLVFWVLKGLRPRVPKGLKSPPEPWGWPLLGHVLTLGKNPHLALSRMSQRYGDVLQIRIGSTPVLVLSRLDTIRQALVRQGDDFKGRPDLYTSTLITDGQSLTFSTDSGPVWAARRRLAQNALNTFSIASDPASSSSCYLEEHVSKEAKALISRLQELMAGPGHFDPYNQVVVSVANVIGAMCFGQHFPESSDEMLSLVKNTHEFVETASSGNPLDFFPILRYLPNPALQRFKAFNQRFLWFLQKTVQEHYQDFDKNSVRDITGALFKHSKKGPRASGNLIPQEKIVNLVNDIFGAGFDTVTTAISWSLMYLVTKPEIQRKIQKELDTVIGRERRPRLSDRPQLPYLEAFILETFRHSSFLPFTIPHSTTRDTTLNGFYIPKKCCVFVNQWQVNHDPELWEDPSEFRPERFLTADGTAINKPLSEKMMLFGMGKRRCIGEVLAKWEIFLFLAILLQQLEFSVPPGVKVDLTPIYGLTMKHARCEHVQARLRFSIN
Procedure: as §2

[7] = Metabolic stability in liver microsomes, monkey; type: in vitro ADME
Procedure: as §1, with “Microsomes” for “Test Example 3: Evaluation of the Metabolic Stability of Liver Microsomes (Mouse and Human) In Vitro Microsomes”

[8] = target: CYP2D6 (Homo sapiens (Human), UniProt P10635); assay: Cytochrome P450 inhibition (fluorescence), CYP2D6; type: in vitro ADME
Chain of CYP2D6 (P10635 whole entry): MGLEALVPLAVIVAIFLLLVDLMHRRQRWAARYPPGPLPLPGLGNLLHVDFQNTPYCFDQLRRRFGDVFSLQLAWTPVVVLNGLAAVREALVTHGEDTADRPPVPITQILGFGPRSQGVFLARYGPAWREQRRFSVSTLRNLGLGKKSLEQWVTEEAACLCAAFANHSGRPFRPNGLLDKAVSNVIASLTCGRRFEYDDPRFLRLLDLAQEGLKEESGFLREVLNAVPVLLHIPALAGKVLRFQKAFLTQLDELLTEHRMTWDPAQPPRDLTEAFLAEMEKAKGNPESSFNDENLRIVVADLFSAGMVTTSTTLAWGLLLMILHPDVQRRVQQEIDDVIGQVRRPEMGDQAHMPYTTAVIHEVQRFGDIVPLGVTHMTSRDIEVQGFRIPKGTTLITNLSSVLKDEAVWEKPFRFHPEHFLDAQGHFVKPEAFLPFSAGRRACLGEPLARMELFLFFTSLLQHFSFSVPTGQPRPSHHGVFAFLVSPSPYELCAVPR
Procedure: as §2

[9] = target: CYP2C8 (Homo sapiens (Human), UniProt P10632); assay: Cytochrome P450 inhibition (fluorescence), CYP2C8; type: in vitro ADME
Chain of CYP2C8 (P10632 whole entry): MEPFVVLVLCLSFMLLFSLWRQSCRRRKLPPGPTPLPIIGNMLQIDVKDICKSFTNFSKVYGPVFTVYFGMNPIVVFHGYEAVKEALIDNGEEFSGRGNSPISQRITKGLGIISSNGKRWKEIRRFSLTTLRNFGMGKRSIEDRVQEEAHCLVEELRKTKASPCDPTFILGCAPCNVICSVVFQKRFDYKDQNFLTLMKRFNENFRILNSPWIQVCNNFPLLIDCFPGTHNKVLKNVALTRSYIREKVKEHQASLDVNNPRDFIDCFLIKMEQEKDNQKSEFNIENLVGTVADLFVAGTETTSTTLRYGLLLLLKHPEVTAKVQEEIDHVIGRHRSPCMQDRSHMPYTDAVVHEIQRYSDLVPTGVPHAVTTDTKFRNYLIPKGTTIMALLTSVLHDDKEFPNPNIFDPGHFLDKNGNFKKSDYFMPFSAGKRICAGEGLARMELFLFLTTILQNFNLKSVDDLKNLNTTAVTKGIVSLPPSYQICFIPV
Procedure: as §2

[10] = Metabolic stability in liver microsomes, dog; type: in vitro ADME
Procedure: as §1, with “Microsomes” for “Test Example 3: Evaluation of the Metabolic Stability of Liver Microsomes (Mouse and Human) In Vitro Microsomes”

[11] = Metabolic stability in liver microsomes, mouse; type: in vitro ADME
Procedure: as §1

[12] = target: CYP2C9 (Homo sapiens (Human), UniProt P11712); assay: Cytochrome P450 inhibition (fluorescence), CYP2C9; type: in vitro ADME
Chain of CYP2C9 (P11712 whole entry): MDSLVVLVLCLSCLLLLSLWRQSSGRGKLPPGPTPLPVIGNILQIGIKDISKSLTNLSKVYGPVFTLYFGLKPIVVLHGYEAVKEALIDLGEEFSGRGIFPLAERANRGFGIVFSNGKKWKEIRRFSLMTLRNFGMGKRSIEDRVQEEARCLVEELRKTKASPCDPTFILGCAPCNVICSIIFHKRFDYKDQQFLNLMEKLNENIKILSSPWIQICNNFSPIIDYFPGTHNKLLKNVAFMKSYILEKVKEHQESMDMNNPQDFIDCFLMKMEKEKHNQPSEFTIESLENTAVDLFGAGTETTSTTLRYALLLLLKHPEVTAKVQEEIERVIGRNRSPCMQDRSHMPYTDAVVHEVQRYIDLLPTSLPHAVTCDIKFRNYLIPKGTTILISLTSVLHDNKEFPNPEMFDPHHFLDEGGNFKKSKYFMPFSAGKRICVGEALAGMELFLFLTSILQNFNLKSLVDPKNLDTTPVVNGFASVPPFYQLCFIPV
Procedure: as §2

[13] = test system: OVCAR-3 cells; assay: Cell Titer-Glo anti-proliferation, OVCAR-3 cells; type: cell-based; conditions: 3 days, read-out: Anti-proliferative activity OVCAR-3 (IC50 class)
In short: as §3

[14] = Metabolic stability in liver microsomes, rat; type: in vitro ADME
Procedure: as §1, with “Microsomes” for “Test Example 3: Evaluation of the Metabolic Stability of Liver Microsomes (Mouse and Human) In Vitro Microsomes”

[15] = test system: HT-29 cells; assay: Cell Titer-Glo anti-proliferation, HT-29 cells; type: cell-based, human; conditions: 3 days, read-out: Anti-proliferative activity HT-29 (IC50 class)
In short: as §3

[16] = target: hERG potassium channel (Homo sapiens (Human), UniProt Q12809); assay: hERG potassium channel inhibition, patch clamp in CHO hERG cells
Chain of hERG potassium channel (Q12809 whole entry): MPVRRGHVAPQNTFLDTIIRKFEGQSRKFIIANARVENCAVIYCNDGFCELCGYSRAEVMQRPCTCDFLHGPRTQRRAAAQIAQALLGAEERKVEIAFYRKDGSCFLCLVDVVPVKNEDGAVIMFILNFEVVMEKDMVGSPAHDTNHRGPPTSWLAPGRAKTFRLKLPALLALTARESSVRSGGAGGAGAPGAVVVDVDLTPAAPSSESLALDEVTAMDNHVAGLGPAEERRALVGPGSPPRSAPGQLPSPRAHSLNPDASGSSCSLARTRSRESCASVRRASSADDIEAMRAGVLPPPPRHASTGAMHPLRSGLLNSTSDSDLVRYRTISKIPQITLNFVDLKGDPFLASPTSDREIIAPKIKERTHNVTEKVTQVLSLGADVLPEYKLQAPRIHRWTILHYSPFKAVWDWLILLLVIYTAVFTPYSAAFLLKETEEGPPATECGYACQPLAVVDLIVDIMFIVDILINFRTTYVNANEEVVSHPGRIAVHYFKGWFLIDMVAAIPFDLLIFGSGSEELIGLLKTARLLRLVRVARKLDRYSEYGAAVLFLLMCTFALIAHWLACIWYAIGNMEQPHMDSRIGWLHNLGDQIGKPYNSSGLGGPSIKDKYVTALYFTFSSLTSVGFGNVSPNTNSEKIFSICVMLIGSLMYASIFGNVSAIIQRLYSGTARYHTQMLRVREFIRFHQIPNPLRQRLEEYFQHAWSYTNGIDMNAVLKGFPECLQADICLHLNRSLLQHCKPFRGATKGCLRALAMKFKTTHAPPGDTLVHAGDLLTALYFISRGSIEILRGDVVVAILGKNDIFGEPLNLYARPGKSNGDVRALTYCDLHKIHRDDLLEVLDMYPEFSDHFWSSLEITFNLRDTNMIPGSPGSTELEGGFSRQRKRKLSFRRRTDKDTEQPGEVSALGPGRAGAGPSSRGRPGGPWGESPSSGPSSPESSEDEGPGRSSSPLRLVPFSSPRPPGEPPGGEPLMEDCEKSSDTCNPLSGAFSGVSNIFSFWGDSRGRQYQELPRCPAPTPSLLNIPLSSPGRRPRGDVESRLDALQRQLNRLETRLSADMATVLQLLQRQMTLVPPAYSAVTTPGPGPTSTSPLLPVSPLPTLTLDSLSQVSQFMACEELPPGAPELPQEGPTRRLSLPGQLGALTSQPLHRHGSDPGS
Procedure: The cell line used for the patch clamp assay was a 10th generation CHO cell overexpressing hERG potassium channel cDNA. CHO hERG cells were cultured in Petri dishes or flasks at 37° C. in a 5% CO2 incubator. Cells were dropped onto circular slides 24-48 hours prior to electrophysiological experiments and cultured in cell culture medium and used for experiments after the cells had been adhered.
Cell culture medium (purchased from Invitrogen) Composition: • Ham's F12 medium • 10% (v/v) heat inactivated FBS • 100 μg/ml Hygromycin B (thaumatin) • 100 μg/ml Geneticin (Genomycin, G418)
Compound powders are dissolved in the extracellular solution and are subjected to a routine 5 to 10 minute sonication and shaking to ensure complete dissolution of the compound.
The final concentrations of compounds used for electrophysiological assays were 5, 20 μM and the final concentration of DMSO was 0.1%.
Cell membrane currents were recorded using a HEKA EPC-10 USB patch-clamp amplifier (HEKA Elektronik, Germany). • 1) A coverslip with a large number of uniformly growing individual CHO hERG cells on its surface was taken. Place in a continuous recording cell on an inverted microscope, perfused with extracellular fluid (approximately 1 ml per minute) and recorded continuously, waiting for the current to stabilize. • 2) Record HERG channel currents for individual cells using standard whole cell recording mode. The membrane voltage is first clamped at −80 mV and the cell is given a +20 mV stimulus for 5 s to activate the hERG potassium channel, then repolarized to −50 mV for 5 s to generate an outward tail current, which is continuously perfused until the current is stable, at which point the peak tail current is the control current value. • 3) The extracellular solution containing the drug to be tested was then perfused and recorded until the inhibitory effect of the drug on the hERG current reached a steady state, at which point the peak tail current was the post-drug current value. • 4) The cells are again perfused with the extracellular solution until the hERG current returns to or approaches the level prior to the addition of the drug, then the perfusion can be continued to test other concentrations or drugs. One or more compound or drug concentrations may be tested on each cell. • 5) Cisapride (C4740-10 mg, Sigma) is used as a positive control in the experiment to ensure that the cells used respond properly.

[17] = test system: HUVEC cells; assay: Cell Titer-Glo anti-proliferation, normal cells HUVEC; type: cell-based
Procedure: (§4) Compound solutions of different concentration gradients were prepared. […] The cell growth group without compound was used as a positive control (maximum signal control) and the medium was used as a negative control (minimum signal control), while ensuring that the final level of DMSO in each reaction well was 0.2%. After removing the medium from the 384-well plate, 25 μl of the configured compound at different concentrations was transferred into the well plate and the compound and cells were incubated in the cell incubator at 37° C. with 5% CO2 for 3 days.
(§5) The 384-well plates were removed from the cell incubator and allowed to equilibrate for 1 h to room temperature. 25 μl of Cell Titer-Glo assay was added to each well, lysed on a shaker for 2 min and then read out (Luminescence) using a BMG PHERAStar after 10 min incubation. Calculate the inhibition rate from the luminescence signal.
(§6) to calculate the rate of inhibition of the cells by different concentrations of the compounds. The IC50 of the compound on cell activity inhibition was calculated by fitting a log(inhibitor) vs. response-Variable slope model to GraphPad Prism 6. The fitted equation was: Y=Bottom+(Top-Bottom)/(1+10^((Log IC50−X)*HillSlope)), where Y represents the rate of inhibition and X represents the concentration of the known compound after Log.
(§7) B. Evaluation of the Anti-Proliferative Effect of Compounds by the Cell Titer-Glo Method on Normal Cells HUVEC and HK2.
(§8) The test method is the same as the anti-proliferative activity evaluation of tumor cells.

[18] = target: Wee1 protein (Homo sapiens (Human), UniProt P30291); assay: TR-FRET binding of compound to Wee1 protein and Tracer 178; conditions: Tracer 178, read-out: IC50, inhibitory activity against Wee1 kinase
Chain of Wee1 protein (P30291 whole entry): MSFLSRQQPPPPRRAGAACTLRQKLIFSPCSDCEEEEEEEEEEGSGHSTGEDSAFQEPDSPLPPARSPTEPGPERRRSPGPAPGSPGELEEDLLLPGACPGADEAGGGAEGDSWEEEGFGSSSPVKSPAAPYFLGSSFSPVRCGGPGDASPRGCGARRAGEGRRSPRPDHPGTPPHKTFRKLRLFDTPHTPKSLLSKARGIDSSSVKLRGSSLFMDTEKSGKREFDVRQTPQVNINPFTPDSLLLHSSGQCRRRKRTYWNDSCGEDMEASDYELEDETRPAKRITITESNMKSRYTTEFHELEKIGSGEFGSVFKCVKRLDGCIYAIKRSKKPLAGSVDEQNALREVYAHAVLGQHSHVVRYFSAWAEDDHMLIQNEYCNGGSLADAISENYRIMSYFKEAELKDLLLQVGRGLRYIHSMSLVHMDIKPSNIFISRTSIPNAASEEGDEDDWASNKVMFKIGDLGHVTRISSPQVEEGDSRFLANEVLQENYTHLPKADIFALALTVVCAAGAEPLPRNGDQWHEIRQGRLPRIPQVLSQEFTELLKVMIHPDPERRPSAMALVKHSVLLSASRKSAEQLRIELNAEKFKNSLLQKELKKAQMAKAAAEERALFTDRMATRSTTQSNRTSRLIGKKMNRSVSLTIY

[19] = test system: HK2 cells; assay: Cell Titer-Glo anti-proliferation, normal cells HK2; type: cell-based
Procedure: as §4, §5, §6, §7, §8

[20] = target: CYP2C19 (Homo sapiens (Human), UniProt P33261); assay: Cytochrome P450 inhibition (fluorescence), CYP2C19; type: in vitro ADME
Chain of CYP2C19 (P33261 whole entry): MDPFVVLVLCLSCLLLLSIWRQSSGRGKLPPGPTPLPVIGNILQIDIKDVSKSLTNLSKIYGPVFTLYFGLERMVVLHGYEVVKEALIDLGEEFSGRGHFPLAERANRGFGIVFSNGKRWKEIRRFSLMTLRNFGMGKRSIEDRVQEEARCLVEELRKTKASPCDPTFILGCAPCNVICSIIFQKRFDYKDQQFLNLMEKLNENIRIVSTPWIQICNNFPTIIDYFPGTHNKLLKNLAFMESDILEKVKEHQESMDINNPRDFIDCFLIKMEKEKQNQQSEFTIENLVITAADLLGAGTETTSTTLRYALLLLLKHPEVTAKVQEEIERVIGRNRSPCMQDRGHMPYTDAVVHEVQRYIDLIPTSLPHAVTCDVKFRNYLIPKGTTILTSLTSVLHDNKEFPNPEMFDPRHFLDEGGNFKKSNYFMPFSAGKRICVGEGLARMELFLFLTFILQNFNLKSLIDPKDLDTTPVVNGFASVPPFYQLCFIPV
Procedure: as §2

[21] = test system: Caco-2 cells; assay: Membrane permeability in Caco-2 model; type: in vitro ADME
Procedure: Caco-2 cells were purchased from the American Model Tissue Cell Collection (Rockville, MD). The cell culture medium was modified Eagle's medium (MEM) containing 10% inactivated fetal bovine serum and 1% non-essential amino acids. […] The cells were incubated for 21-28 days after inoculation for transport experiments and the apparent permeability (Papp) of Lucifer Yellow was used to characterize and verify the compactness of the cell monolayer. […] After the incubation, dilute the samples on the apical side and basolateral side, and the concentrations of compounds on the apical and basolateral sides were detected by LC-MS/MS, and the concentrations of the compounds were quantified by standard curve.

[22] = Saturated solubility in buffer at different pH; type: physicochemical
Procedure: The compound was placed in a buffer solution and shaken at constant temperature for 24 h. […] Chromatographic conditions: C18 column, mobile phase A: 0.02 M potassium dihydrogen phosphate:acetonitrile=90:10, mobile phase B: acetonitrile; V: 1.0 ml/min, T: 35° C., λ: 210 nm.

[23] = Toxicity in rats after 14 consecutive days of administration, survival; conditions: 75 mg/kg qd by gavage, 14 days

Row | SMILES | T1/2 liver microsomes Human [1] | Plasma Protein binding (PPB) Mouse [2] | IC50 ([3]; read-out: IC50 CYP3A4) | Plasma Protein binding (PPB) Rat [4] | IC50 [5] | IC50 [6] | T1/2 liver microsomes Monkey [7] | IC50 ([8]; read-out: IC50 CYP2D6) | IC50 ([9]; read-out: IC50 CYP2C8) | T1/2 liver microsomes Dog [10] | T1/2 liver microsomes Mouse [11] | IC50 ([12]; read-out: IC50 CYP2C9) | IC50 [13] | T1/2 liver microsomes Rat [14] | IC50 [15] | hERG Inhibition ([16]; test concentration 5 μM) | hERG Inhibition ([16]; test concentration 20 μM) | IC50 [17] | IC50 [18] | IC50 [19] | also measured
1 | C=CCn1c(=O)c2cnc(Nc3ccc(N4CCC5(CCN(C)CC5)CC4)cc3)nc2n1-c1ccc2c(n1)[C@](C)(O)C1(CC2)CC1 (racemic) [Compound 44] | 1.296 h | 98.46% | > 10 µM | 96.98% | 0.1 to 1 µM | > 10 µM | 0.5015 h | > 10 µM | > 10 µM | 0.7135 h | 1.05 h | > 10 µM | 0.1 to 1 µM | >2 h | 0.1 to 1 µM | 77.68 ± 4.16% | 91.56 ± 2.72% | – | – | – | –
2 | C=CCn1c(=O)c2cnc(Nc3ccc(N4CC5CC(C4)N5C)cc3)nc2n1-c1ccc2c(n1)[C@@](C)(O)C1(CC2)CC1 [Compound 7a] | 1.057 h | 97.21% | > 10 µM | 94.82% | 0.1 to 1 µM | > 10 µM | 0.2625 h | > 10 µM | > 10 µM | 1.541 h | 1.209 h | > 10 µM | 0.1 to 1 µM | 0.357 h | 0.1 to 1 µM | – | – | > 10 µM | 0.005 to 0.01 µM | 0.67 µM | –
3 | C=CCn1c(=O)c2cnc(Nc3ccc(N4CCN(C)CC4)cc3)nc2n1-c1ccc2c(n1)C(C)(O)C1(CC1)C2 (centres unmarked) [Compound 3] | – | 87.75% | – | – | 1 to 2 µM | – | – | – | – | – | – | – | 1 to 2 µM | – | 0.1 to 1 µM | – | – | – | 0.005 to 0.01 µM | – | IC50 [20]: > 10 µM; IC50 [3]: > 10 µM; IC50 ([6]; read-out: IC50 CYP1A2): > 10 µM; IC50 [8]: > 10 µM; IC50 [9]: > 10 µM; IC50 [12]: > 10 µM
4 | C=CCn1c(=O)c2cnc(Nc3ccc(N4CCN(C)CC4)cc3)nc2n1-c1ccc2c(n1)[C@@](O)(CC)CC2 [ZnC3, reference compound] | – | – | – | – | 0.1 to 1 µM | – | – | – | – | – | – | – | 0.1 to 1 µM | – | 0.1 to 1 µM | 7.38 ± 1.59% | 18.05 ± 7.58% | > 10 µM | 0.01 to 0.1 µM | 0.34 µM | Efflux Ration ([21]; Caco2): 35.74; Papp A to B ([21]; Caco2, 10 μM, 90 min): 0.42 10^−6 cm/s; Papp B to A ([21]; Caco2, 10 μM, 90 min): 15.01 10^−6 cm/s; Saturated solubility pH 5.0 ([22]; pH 5): 0.35 mg/mL; Saturated solubility pH 6.5 ([22]; pH 6.5): 0.59 mg/mL; Saturated solubility pH 7.4 ([22]; pH 7.4): 0.68 mg/mL; Survival of Rats ([23]; female rats): 1/7; Survival of Rats ([23]; male rats): 2/7
